The source of these data is patent US10377694B2, “Bi-aromatic propynyl compounds, pharmaceutical and cosmetic compositions containing them and uses thereof” (GALDERMA RESEARCH & DEVELOPMENT, priority 2016, dated 2019).

Common to all, as to assay: Transactivation test (apparent Kd by Schild regression versus reference antagonist), luciferase reporter in HeLa cells
Common to all, as to format: cell-based

One assay has as its target T1, RAR alpha (Homo sapiens, UniProt P10276).
T1 sequence (P10276 183-417 limits assumed): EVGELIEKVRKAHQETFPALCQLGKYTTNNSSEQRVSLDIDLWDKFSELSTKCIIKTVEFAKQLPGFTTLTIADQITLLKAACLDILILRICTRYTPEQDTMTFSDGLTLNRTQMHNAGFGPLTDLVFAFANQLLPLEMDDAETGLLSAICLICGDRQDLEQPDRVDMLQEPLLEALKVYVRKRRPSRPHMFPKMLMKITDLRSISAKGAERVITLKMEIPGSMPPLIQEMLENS
As to conditions: HeLa stable transfectants ERE-βGlob-Luc-SV-Neo and RAR alpha ER-DBD-puro, 18 hours incubation, read-out: RAR alpha Kdapp. How it is done: (§1) Activation of receptors by an agonist (activator) in HeLa cells leads to the expression of a reporter gene, luciferase, which generates light in the presence of a substrate. Therefore the activation of receptors can be measured by quantifying the luminescence produced after incubation of the cells in the presence of a reference antagonist. The activator products displace the antagonist from its site, thus permitting the receptor to be activated. The activity is measured by quantifying the increase in light produced. This measurement determines the activating activity of the useful compound in the invention.
(§2) In this study, a constant is determined that represents the affinity of the molecule for the receptor. This value can fluctuate according to the basal activity and expression of the receptor; it is designated apparent Kd (KdApp).
(§3) To determine this constant, cross curves are created of the product to be tested (4′-(3-hydroxy-propyl)-3′-(5,5,8,8-tetramethyl-5,6,7,8-tetrahydro-naphthalen-2-yl)-biphenyl-4-carboxylic acid and 4′-(2,3-dihydroxy-propyl)-3′-(5,5,8,8-tetramethyl-5,6,7,8-tetrahydro-naphtalen-2-yl)-biphenyl-4-carboxylic) acid versus a reference antagonist also called reference ligand, 4-(5,5-dimethyl-8-p-tolyl-5,6-dihydro-naphthalen-2-ylethynyl)-benzoic acid. The product to be tested is used at 10 concentrations and the reference antagonist at 7 concentrations. In each well (of a 96-well plate), the cells are in contact with one concentration of the product to be tested and one concentration of the reference antagonist.
(§4) Full agonist controls, also called 100% controls, (4-[2-(5,5,8,8 tetramethyl-5,6,7,8 tetrahydronaphthalene-2-yl)propenyl]-benzoic acid) and inverse agonist controls, also called 0% controls, (4-{(E)-3-[4-(4-tert-butyl-phenyl)-5,5,8,8-tetramethyl-5,6,7,8-tetrahydro-naphthalen-2-yl]-3-oxo-propenyl}-benzoic acid) are also measured.
(§5) These cross curves allow determining the AC50 (concentration at which 50% activation of the receptor is observed) of the reference ligand at different concentrations of the product to be tested. These AC50s are used to calculate the Schild regression by plotting a line conforming to the Schild equation (“Quantitation in receptor pharmacology” Terry P. Kenakin, Receptors and Channels, 2001, 7, 371-385).
(§6) In the case of an agonist, the AC50 is calculated by plotting the curve of the product at the concentration of the reference ligand giving 80% activation. The percentage of activation that corresponds to the maximum level of activity obtained is also measured.
(§7) The HeLa cell lines used are stable transfectants containing the plasmids ERE-βGlob-Luc-SV-Neo (reporter gene) and RAR (α, β, γ) ER-DBD-puro. These cells are inoculated onto 96-well plates in an amount of 10,000 cells per well in 100 μl DMEM medium with no phenol red and supplemented with 10% delipidated fetal bovine serum. The plates are then incubated at 37° C., 7% CO2 for 4 hours.
(§8) The different dilutions of the product to be tested, the reference ligand (4-(5,5-dimethyl-8-p-tolyl-5,6-dihydro-naphthalen-2-ylethynyl)-benzoic acid), the 100% control (100 nM 4-[2-(5,5,8,8 tetramethyl-5,6,7,8 tetrahydronaphthalene-2-yl)propenyl]-benzoic acid) and the 0% control (500 nM 4-{(E)-3-[4-(4-tert-butyl-phenyl)-5,5,8,8-tetramethyl-5,6,7,8-tetrahydro-naphthalen-2-yl]-3-oxo-propenyl}-benzoic acid) are added in an amount of 5 μl per well. The plates are then incubated 18 hours at 37° C., 7% CO2.
(§9) The culture medium is removed by turning over and 100 μl of a 1:1 PBS (phosphate buffer solution)/luciferin mixture is added to each well. After 5 minutes, the plates are read by the luminescence reader.

In the next assay the target is T2, RAR beta (Homo sapiens, UniProt P10826).
T2 sequence (P10826 183-417 limits assumed): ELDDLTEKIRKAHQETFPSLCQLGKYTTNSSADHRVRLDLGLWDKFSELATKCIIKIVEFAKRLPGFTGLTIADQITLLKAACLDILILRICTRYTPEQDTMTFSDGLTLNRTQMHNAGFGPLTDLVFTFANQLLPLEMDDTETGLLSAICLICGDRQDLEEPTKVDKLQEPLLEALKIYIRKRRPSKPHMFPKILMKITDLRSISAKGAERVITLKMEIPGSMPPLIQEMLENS
As to conditions: HeLa stable transfectants ERE-βGlob-Luc-SV-Neo and RAR beta ER-DBD-puro, 18 hours incubation, read-out: RAR beta Kdapp. As for the experimental part:
as §1, §2, §3, §4, §5, §6, §7, §8, §9

The target of a further assay is T3, RAR gamma (Homo sapiens, UniProt P13631).
T3 sequence (P13631 185-454 limits assumed): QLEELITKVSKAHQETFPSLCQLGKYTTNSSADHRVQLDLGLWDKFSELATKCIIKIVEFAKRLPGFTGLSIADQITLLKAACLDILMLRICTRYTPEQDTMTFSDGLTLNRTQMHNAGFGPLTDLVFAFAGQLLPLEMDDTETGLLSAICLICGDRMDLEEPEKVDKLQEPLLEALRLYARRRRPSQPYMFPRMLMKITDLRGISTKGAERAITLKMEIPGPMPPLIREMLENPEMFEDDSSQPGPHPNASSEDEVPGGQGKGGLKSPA
As to conditions: HeLa stable transfectants ERE-βGlob-Luc-SV-Neo and RAR gamma ER-DBD-puro, 18 hours incubation, read-out: RAR gamma Kdapp. How it is done:
as §1, §2, §3, §4, §5, §6, §7, §8, §9

As to `CC1(C)CCC(C)(C)c2c(O)cc(C#Cc3ccc(C(=O)O)c(O)c3)cc21` [Compound 1], the values for the Kd on RAR alpha, on RAR beta and at RAR gamma were 120 nM, 4 nM and 4 nM, respectively.
Consider `CC1(C)CCC(C)(C)c2c(OCC3CC3)cc(C#Cc3ccc(C(=O)O)cn3)cc21` [Compound 2], for which the Kd on RAR alpha came to 30 nM; on RAR beta, 2 nM; at RAR gamma, 4 nM.
